The Ki is a measure of affinity in units of concentration, obtained from inhibition or displacement. The melting point is the temperature of the solid-liquid transition.

These results are taken from patent publication US7012080B2, “Imidazopyridine compounds as 5-HT4 receptor agonists” (Pfizer Inc., priority 2002, dated 2006).

One series concerns the target T1, 5-HT4 receptor (UniProt Q13639).
T1 construct: Human 5-HT4(d) transfected HEK293 cells were prepared and grown in-house
Nature of the series: 5-HT4 receptor binding ([3H]-GR113808 displacement). As for the experimental part:
The 5-HT4 receptor binding affinities of the compounds of this invention are determined by the following procedures. […]
Human 5-HT4(d) transfected HEK293 cells were prepared and grown in-house. The collected cells were suspended in 50 mM HEPES (pH 7.4 at 4° C.) supplemented with protease inhibitor cocktail (Boehringer, 1:1000 dilution) and homogenized using a hand held Polytron PT 1200 disruptor set at full power for 30 sec on ice. The homogenates were centrifuged at 40,000×g at 4° C. for 30 min. The pellets were then resuspended in 50 mM HEPES (pH 7.4 at 4° C.) and centrifuged once more in the same manner. The final pellets were resuspended in an appropriate volume of 50 mM HEPES (pH 7.4 at 25° C.), homogenized, aliquoted and stored at −80° C. until use. An aliquot of membrane fractions was used for protein concentration determination using BCA protein assay kit (PIERCE) and ARVOsx plate reader (Wallac).
For the binding experiments, 25 μl of test compounds were incubated with 25 μl of [^3H]-GR113808 (Amersham, final 0.2 nM) and 150 μl of membrane homogenate and WGA-SPA beads (Amersham) suspension solutions (10 μg protein and 1 mg SPA beads/well) for 60 minutes at room temperature. Nonspecific binding was determined by 1 μM GR113808 (Tocris) at the final concentration. Incubation was terminated by centrifugation at 1000 rpm. Receptor-bound radioactivity was quantified by counting with MicroBeta plate counter (Wallac).

Another series addresses T2, HERG potassium channel (Homo sapiens, UniProt Q12809).
T2 construct: expressed in transfected cells; host or cells: HEK293S
Nature of the series: Human dofetilide binding ([3H]-dofetilide, HERG transfected HEK293S cell membranes). As to conditions: for TI (Defetilide/5HT4): TI = Dofetilide Binding Ki [μM] / 5HT4 Binding Ki [nM] × 1000; for Ki: [3H]-dofetilide 5 nM, human HERG transfected HEK293S membranes. As for the experimental part:
Inhibitory activity at HERG channel was estimated from affinity for HERG type potassium channel was investigated by checking [^3H]dofetilide binding, which can predict inhibitory activity at HERG channel (Eur. J. Pharmacol., 430, pp 147–148, 2001). Selected compounds with low [^3H]dofetilide binding activity were evaluated in IHERG assay to check activity at HERG channel. Introducing a branched chain group to nitrogen atom in piperidine ring contributed to potent 5-HT4 receptor agonist activities with reduced inhibitory activity at HERG channel. The compounds of the present invention may show less toxicity, good absorption, distribution and less drug-drug interaction, and have metabolic stability.
Human HERG transfected HEK293S cells were prepared and grown in-house. The collected cells were suspended in 50 mM Tris-HCl (pH 7.4 at 4° C.) and homogenized using a hand held Polytron PT 1200 disruptor set at full power for 20 sec on ice. The homogenates were centrifuged at 48,000×g at 4° C. for 20 min. The pellets were then resuspended, homogenized, and centrifuged once more in the same manner. The final pellets were resuspended in an appropriate volume of 50 mM Tris-HCl, 10 mM KCl, 1 mM MgCl2 (pH 7.4 at 4° C.), homogenized, aliquoted and stored at −80° C. until use. An aliquot of membrane fractions was used for protein concentration determination using BCA protein assay kit (PIERCE) and ARVOsx plate reader (Wallac).
Binding assays were conducted in a total volume of 200 μl in 96-well plates. Twenty μl of test compounds were incubated with 20 μl of [^3H]-dofetilide (Amersham, final 5 nM) and 160 μl of membrane homogenate (25 μg protein) for 60 minutes at room temperature. Nonspecific binding was determined by 10 μM dofetilide at the final concentration. Incubation was terminated by rapid vacuum filtration over 0.5% presoaked GF/B Betaplate filter using Skatron cell harvester with 50 mM Tris-HCl, 10 mM KCl, 1 mM MgCl2, pH 7.4 at 4° C. The filters were dried, put into sample bags and filled with Betaplate Scint. Radioactivity bound to filter was counted with Wallac Betaplate counter.

T2 sequence (Q12809 whole entry): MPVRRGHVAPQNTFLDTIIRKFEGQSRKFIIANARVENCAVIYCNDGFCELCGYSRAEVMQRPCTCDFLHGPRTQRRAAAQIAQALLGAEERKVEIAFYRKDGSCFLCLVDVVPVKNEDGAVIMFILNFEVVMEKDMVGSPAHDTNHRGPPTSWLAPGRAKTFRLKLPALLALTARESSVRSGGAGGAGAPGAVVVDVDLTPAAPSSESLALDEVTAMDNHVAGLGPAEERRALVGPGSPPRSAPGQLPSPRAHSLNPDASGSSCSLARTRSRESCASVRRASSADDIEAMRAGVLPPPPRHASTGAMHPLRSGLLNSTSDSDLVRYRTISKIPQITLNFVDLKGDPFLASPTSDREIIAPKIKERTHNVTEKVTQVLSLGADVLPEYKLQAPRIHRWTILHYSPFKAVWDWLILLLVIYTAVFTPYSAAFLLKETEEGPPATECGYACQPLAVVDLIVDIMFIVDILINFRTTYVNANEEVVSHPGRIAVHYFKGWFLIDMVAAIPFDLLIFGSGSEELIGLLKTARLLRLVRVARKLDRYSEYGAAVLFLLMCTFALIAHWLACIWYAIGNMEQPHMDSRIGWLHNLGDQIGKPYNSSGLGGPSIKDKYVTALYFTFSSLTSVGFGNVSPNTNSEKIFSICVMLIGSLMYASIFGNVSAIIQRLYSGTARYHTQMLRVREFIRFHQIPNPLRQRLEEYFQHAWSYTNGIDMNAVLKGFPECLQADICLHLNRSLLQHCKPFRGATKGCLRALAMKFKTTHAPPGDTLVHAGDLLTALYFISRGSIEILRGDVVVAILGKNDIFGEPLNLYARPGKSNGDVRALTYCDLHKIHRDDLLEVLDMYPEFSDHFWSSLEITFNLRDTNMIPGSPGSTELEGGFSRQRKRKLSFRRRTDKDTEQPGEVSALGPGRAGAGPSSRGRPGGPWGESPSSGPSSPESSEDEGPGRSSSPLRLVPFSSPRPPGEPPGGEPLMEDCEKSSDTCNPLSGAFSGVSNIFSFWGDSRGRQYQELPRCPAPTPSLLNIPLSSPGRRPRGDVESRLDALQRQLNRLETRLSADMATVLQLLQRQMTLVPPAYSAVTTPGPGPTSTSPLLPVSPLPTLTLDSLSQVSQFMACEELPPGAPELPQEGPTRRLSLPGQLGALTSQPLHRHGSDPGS

As for `CCCCN1CCC(CNC(=O)c2cc(Cl)c(N)n3cc(C)nc23)CC1` [Compound A, reference compound], the Ki on 5-HT4 receptor was found to be 1.2 nM; at HERG potassium channel it was 2300 nM. Besides, at HERG potassium channel, the “TI (Defetilide/5HT4)” value is recorded as 1,900.
The like results for `COCCCN1CCC(CNC(=O)c2cc(Cl)c(N)n3cc(C)nc23)CC1` [Compound B, reference compound] were, in that order, 4.6 nM, 6000 nM and 1,300.
The compound `Cc1cn2c(N)c(Cl)cc(C(=O)NCC3CCN(CC(C)C)CC3)c2n1` [Example 1, 5-Amino-6-chloro-N-[(1-isobutylpiperidin-4-yl)methyl]-2-methylimidazo[1,2-a]pyridine-8-carboxamide] displayed a melting point of 216 to 219 °C. Besides, the affinity at 5-HT4 receptor, expressed as Ki, was 0.82 nM. Moreover, at HERG potassium channel, the “TI (Defetilide/5HT4)” value is on record as 7,000 and the affinity corresponds to a Ki of 5750 nM.
For `Cc1cn2c(N)ccc(C(=O)NCC3CCN(CC(C)C)CC3)c2n1` [Example 2, 5-Amino-N-[(1-isobutylpiperidi-4-yl)methyl]-2-methylimidazo[1,2-a]pyridine-8-carboxamide], the Ki at 5-HT4 receptor was 3.1 nM. For the same compound, at HERG potassium channel, the “TI (Defetilide/5HT4)” value was 7,800 and the inhibition constant (Ki) came to 24100 nM.
In the case of `CCc1cn2c(N)c(Cl)cc(C(=O)NCC3CCN(CCC(C)(C)C)CC3)c2n1` [Example 3, 5-Amino-6-chloro-N-{[1-(3,3-dimethylbutyl)piperidin-4-yl]methyl}-2-ethylimidazo[1,2-a]pyridine-8-carboxamide], the melting point worked out at 234 °C. The same compound returned a Ki on 5-HT4 receptor of 0.77 nM. Further, on HERG potassium channel, the “TI (Defetilide/5HT4)” value is 5,000 and affinity was put at a Ki of 3870 nM.
`CCc1cn2c(N)c(Cl)cc(C(=O)NCC3CCN(CC(C)(C)OC)CC3)c2n1` [Example 4, 5-Amino-6-chloro-2-ethyl-N-{[1-(2-methoxy-2-methylpropyl)piperidin-4-yl]methyl}imidazo[1,2-a]pyridine-8-carboxamide] had a melting point of 211 °C. This compound had an inhibition constant (Ki) at 5-HT4 receptor of 1.2 nM. This compound had a Ki on HERG potassium channel of 22300 nM.
Compound `COC(C)(C)CN1CCC(CNC(=O)c2cc(Cl)c(N)n3cc(C)nc23)CC1` [Example 5, 5-Amino-6-chloro-2-methyl-N-{[1-(2-methoxy-2-methylpropyl)piperidin-4-yl]methyl}imidazo[1,2-a]pyridine-8-carboxamide] came in with a melting point of 211 °C. Besides, the Ki on 5-HT4 receptor came out at 2 nM. Further, at HERG potassium channel, the Ki is > 24000 nM.
For `COC(C)(C)CCN1CCC(CNC(=O)c2cc(Cl)c(N)n3cc(C)nc23)CC1` [Example 8, 5-Amino-6-chloro-N-{[1-(3-methoxy-3-methylbutyl)piperidin-4-yl]methyl}2-methylimidazo[1,2-a]pyridine-8-carboxamide], the melting point worked out at 199 °C.
Regarding `COCC(C)(C)CN1CCC(CNC(=O)c2cc(Cl)c(N)n3cc(C)nc23)CC1` [Example 9, 5-amino-6-chloro-N-{[1-(3-methoxy-2,2-dimethylpropyl)piperidin-4-yl]methyl}2-methylimidazo[1,2-a]pyridine-8-carboxamide], the melting point amounted to 199 °C.
